Measured values as given in ChEMBL document CHEMBL5346969 (J Med Chem, 2023).
Activity calls are given as the source filed them. No cut-off for these calls is given here.

How the values were obtained:
[1] = target: T1, Phospholipid hydroperoxide glutathione peroxidase GPX4 (Homo sapiens) (UniProt P36969); assay: Binding affinity to GPX4 (35 to 48 residues) (unknown origin) at Sec46 residue assessed as increase in mass of single charged y3+ ion at 100 uM incubated for 1.5 hrs by SDS-PAGE based LC-MS/MS analysis
T1 sequence (whole entry): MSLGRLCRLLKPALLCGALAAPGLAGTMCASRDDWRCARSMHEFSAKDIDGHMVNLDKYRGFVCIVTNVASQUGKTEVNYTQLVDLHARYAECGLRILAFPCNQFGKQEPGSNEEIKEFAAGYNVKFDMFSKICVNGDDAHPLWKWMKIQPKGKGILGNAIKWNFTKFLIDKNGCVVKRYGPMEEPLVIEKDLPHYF

[2] = target: T1, Phospholipid hydroperoxide glutathione peroxidase GPX4 (Homo sapiens); assay: Binding affinity to GPX4 (unknown origin) at Cys66 residue assessed as change in mass of single charged y4+ ion at 100 uM incubated for 1.5 hrs by SDS-PAGE based LC-MS/MS analysis
[3] = target: T1, Phospholipid hydroperoxide glutathione peroxidase GPX4 (Homo sapiens); assay: Binding affinity to GPX4 (unknown origin) at Cys66 residue assessed as change in mass of single charged y3+ ion at 100 uM incubated for 1.5 hrs by SDS-PAGE based LC-MS/MS analysis
MDA-MB-231 [4] = assay: Induction of ferroptosis in siRNA mediated GPX4 knockdown human MDA-MB-231 cells with assessed as cell viability at 10 nM incubated for 10 hrs by MTT assay; assay type: functional, cell-based
MDA-MB-231 [5] = assay: Induction of ferroptosis in siRNA mediated GPX4 knockdown human MDA-MB-231 cells with assessed as change in GPX4 protein expression level at 20 nM incubated for 8 hrs by Western blot analysis; assay type: functional, cell-based
MDA-MB-231 [6] = assay: Induction of ferroptosis in siRNA mediated GPX4 knockdown human MDA-MB-231 cells with assessed as change in FTH1 protein expression level at 20 nM incubated for 8 hrs by Western blot analysis; assay type: functional, cell-based
MDA-MB-231 [7] = assay: Induction of ferroptosis in siRNA mediated GPX4 knockdown human MDA-MB-231 cells with assessed as change in ACSL4 protein expression level at 20 nM incubated for 8 hrs by Western blot analysis; assay type: functional, cell-based
[8] = Cmax in rat at 10 mg/kg, ip and measured upto 24 hrs by LC-MS/MS analysis; assay type: ADME, organism-based; design: time < 24 hrs, dose 10 mg/kg, route ip; conditions: in vivo
[9] = MRT(t) in rat at 10 mg/kg, ip and measured upto 24 hrs by LC-MS/MS analysis; assay type: ADME, organism-based; conditions: in vivo

COc1cc(N(C(=O)CCl)c2ccc3c(c2)OCCO3)cc(OC)c1F
Activity [1]: Active
Activity [2]: inactive
Activity [3]: inactive
Activity (MDA-MB-231 [4]): inactive
Activity (MDA-MB-231 [5]): inactive
Activity (MDA-MB-231 [6]): inactive
Activity (MDA-MB-231 [7]): inactive
Cmax [8]: 5205 ng/mL
MRT last at 24 h [9]: 1.71 h
